Measurements as given in patent US5883133A, “Substituted cinnamic acid guanidides, a process for their preparation, their use as medicaments or diagnostic agents and medicaments comprising them” (priority 1995, dated 1999).
Structures can show the parent of a compound that is named as a salt.

How the values were obtained:
[1] = target: T1, Na^+ /H^+ exchanger of rabbit erythrocytes (Oryctolagus cuniculus, UniProt P23791); test: Inhibition of the Na+/H+ exchanger of rabbit erythrocytes (amiloride-sensitive sodium influx, flame photometry); format: cell-based, rabbit (White New Zealand); settings: pH 7.4, 37° C., hyperosmolar salt/sucrose medium
T1 construct: exchanger of rabbit erythrocytes; endogenous in cells; host or cells: erythrocytes from ear-artery blood of White New Zealand rabbits (Ivanovas) fed 2% cholesterol for six weeks
T1 sequence (P23791 whole entry): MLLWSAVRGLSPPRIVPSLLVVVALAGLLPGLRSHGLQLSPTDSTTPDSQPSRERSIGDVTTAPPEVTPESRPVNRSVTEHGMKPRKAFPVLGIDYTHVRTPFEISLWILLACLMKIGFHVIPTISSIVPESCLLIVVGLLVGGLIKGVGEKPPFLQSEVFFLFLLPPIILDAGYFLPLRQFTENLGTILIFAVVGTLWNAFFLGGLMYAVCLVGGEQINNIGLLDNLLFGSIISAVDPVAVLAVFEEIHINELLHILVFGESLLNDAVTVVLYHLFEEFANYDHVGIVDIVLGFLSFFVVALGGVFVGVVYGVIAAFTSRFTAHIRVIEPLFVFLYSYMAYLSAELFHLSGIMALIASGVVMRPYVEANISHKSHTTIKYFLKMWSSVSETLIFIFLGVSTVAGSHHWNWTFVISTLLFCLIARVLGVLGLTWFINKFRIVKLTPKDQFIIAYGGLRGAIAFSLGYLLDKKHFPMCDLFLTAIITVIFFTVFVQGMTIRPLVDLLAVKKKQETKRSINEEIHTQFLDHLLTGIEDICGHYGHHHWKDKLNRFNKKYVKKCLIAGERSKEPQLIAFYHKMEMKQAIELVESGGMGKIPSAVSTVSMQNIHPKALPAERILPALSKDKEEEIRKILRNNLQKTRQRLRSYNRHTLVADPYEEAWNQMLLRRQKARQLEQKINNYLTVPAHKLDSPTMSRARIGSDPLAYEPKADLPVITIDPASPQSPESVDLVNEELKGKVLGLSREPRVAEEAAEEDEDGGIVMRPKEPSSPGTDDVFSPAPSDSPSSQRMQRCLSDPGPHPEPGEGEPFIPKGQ
Text: Inhibitors of the Na^+ /H^+ exchanger of rabbit erythrocytes:
White New Zealand rabbits (Ivanovas) were given a standard diet with 2% of cholesterol for six weeks in order to activate the Na^+ /H^+ exchange so that the Na^+ influx into the erythrocytes via Na^+ /H^+ exchange can be determined by flame photometry. The blood was taken from the ear arteries and rendered uncoagulable by 25 IU/ml of heparin potassium. A portion of each sample was used for duplication determination of the hematocrit by centrifugation. Aliquots of in each case 100 μl were used for measurement of the initial Na^+ content of the erythrocytes.
To determine the amiloride-sensitive sodium influx, 100 μl of each blood sample were each incubated at pH 7.4 and 37° C. in 5 ml of a hyperosmolar salt/sucrose medium (mmol/l: 140 NaCl, 3 KCl, 150 sucrose, 0.1 ouabain, 20 tris-hydroxymethyl-aminomethane). The erythrocytes were then washed three times with ice-cold MgCl2 /ouabain solution (mmol/l: 112 MgCl2, 0.1 ouabain) and hemolyzed in 2.0 ml of distilled water. The intracellular sodium content was determined by flame photometry.
The net Na^+ influx was calculated from the difference between the initial sodium levels and the sodium content of the erythrocytes after incubation. […]

rat hearts = settings: isolated rat hearts, cited from earlier work

Row | Structure (SMILES) | IC50 [1] | further results
1 | C/C(=C\c1ccc(N(C)C)cc1)C(=O)N=C(N)N [Example 1, E-3-(4-Dimethylaminophenyl)-2-methyl-propenoic acid guanidide hydrochloride] | < 1000 nM | –
2 | C/C(=C\c1ccc(OCCCN(C)C)cc1)C(=O)N=C(N)N [Example 2, E-3-[4-(3-Dimethylaminopropoxy)phenyl)-2-methyl-propenoic acid guanidide dihydrochloride] | < 1000 nM | –
3 | NC(N)=NC(=O)c1nc(Cl)c(N)nc1N [amiloride] | – | suppression of artificially induced ventricular fibrillation (rat hearts; Eur. Heart J. 9 (suppl. 1): 167 (1988)): suppressed completely
4 | CCN(c1nc(N)c(C(=O)N=C(N)N)nc1Cl)C(C)C [ethylisopropylanmiloride, Ethylisopropylamiloride] | – | potency in ventricular fibrillation model relative to amiloride (rat hearts; compared with amiloride): even more potent than amiloride
